Here are results for two compounds from US10653693B2, “PRMT5 inhibitors and uses thereof” (Epizyme, Inc., priority 2014, dated 2020).

The test system of test [1] is MCL cell lines (Z-138, Maver-1, Mino, Jeko-1, Granta-519). Nature of the test: Gene expression results from MCL cell lines (Table 4). Conditions: Day 4. It is filed as cell-based, Human. The method, then:
The fold change was calculated using the Comparative Ct method ([…]). N=1. A previous RNA Seq study in MCL cell lines using a tool compound with the same cellular potency as Formula B identified expression changes in a number of genes involved in the apoptotic response (unpublished results). These genes included the Bcl-2 family members PUMA and BAX, well characterized drivers of the apoptotic response. Other genes implicated in the apoptotic response were also identified and include PHLDA3, TP53I3, p21, APOBEC3H, TRIM22, and FAS. […] [table]

Test [2] has as its system MDM4 splicing in Z138 cells. Nature of the test: MDM4 splicing analysis (PCR). In kind it is cell-based, Human. Conditions: Z138 mantle cell lymphoma cells. The method, then:
Z138 cells were seeded in 10 cm tissue culture dishes at a density of approximately 3×10^6 cells per dish in a volume of 10 mL IMDM+10% horse serum media. Cells were treated with 200 nM or 1 μM of compound at 0.5% DMSO for 1, 2, or 3 days. Cell pellets were harvested by washing once with PBS, […], centrifuging at 1000×g for 5 minutes, then storing at −80° C. until ready to process.
RNA was extracted from cell pellets. First, pellets were thawed on ice and then quickly resuspended in 500 μL Trizol reagent. Samples were then incubated 2-3 minutes at room temperature and vortexed for 30 sec to completely homogenize the lysate. 50 μL of water and 50 μL of chloroform were added to each Trizol-cell mixture, then each sample was vortexed for 30 sec to mix completely. Samples were loaded onto MaXtract High Density tubes and spun at 14,000 RPM for 5 minutes. The clear supernatant (aqueous phase) from each tube was transferred to a new 2 mL tube and 2× volume of freshly prepared 70% ethanol was added to each sample. Samples were loaded onto RNeasy spin columns (part of Qiagen RNeasy Mini kit). Columns were centrifuged at 9000×g for 15 sec and flow-through was discarded. 350 μL Buffer RW1 was added to each column and samples were centrifuged at […] for 15 sec and flow-through was discarded. […] RNA concentration was analyzed on a Nanodrop. […]

Setting [3] is: tested: Z-138, Maver-1, Granta-519, Jeko-1.

Molecules are shown by their SMILES.

Turning to `CC(=O)N1CCC(Nc2cc(C(=O)NC[C@H](O)CN3CCc4ccccc4C3)ccn2)CC1` [Formula B], in test [1] (tested: Z-138, Granta-519, Jeko-1), the “Cell Lines Showing Dose Dependent Changes: P21” value is recorded as “Z-138, Granta-519”. Moreover, the “Cell Lines Showing Dose Dependent Changes: BAX” value in test [1] (tested: Z-138, Maver-1) is “Z-138, Maver-1”. Besides, in test [1] (setting [3]), the “Cell Lines Showing Dose Dependent Changes: FAS” value is “Granta-519 (slight)” and the “Cell Lines Showing Dose Dependent Changes: TRIM22” value is “Granta-519 (slight)”. In test [1] (tested: Z-138, Maver-1, Mino, Jeko-1, Granta-519), the “Cell Lines Showing Dose Dependent Changes: PUMA” value is reported as “Z-138, Maver-1”.

In the case of `O=C(NC[C@H](O)CN1CCc2ccccc2C1)c1ccnc(NC2CCC2)c1` [Formula C], in test [2], the MDM4 splicing result is on record as “attenuates”.
